As a reminder, the IC50 is the concentration that inhibits the measured activity by half.

Results on 5 molecules are retold here after US20250206730A1 (AUTOTELIC BIO INC., priority 2022, published 2025).

The target in one assay is T1, ALK5 kinase (Homo sapiens, UniProt P36897).
T1 sequence (P36897 34-503): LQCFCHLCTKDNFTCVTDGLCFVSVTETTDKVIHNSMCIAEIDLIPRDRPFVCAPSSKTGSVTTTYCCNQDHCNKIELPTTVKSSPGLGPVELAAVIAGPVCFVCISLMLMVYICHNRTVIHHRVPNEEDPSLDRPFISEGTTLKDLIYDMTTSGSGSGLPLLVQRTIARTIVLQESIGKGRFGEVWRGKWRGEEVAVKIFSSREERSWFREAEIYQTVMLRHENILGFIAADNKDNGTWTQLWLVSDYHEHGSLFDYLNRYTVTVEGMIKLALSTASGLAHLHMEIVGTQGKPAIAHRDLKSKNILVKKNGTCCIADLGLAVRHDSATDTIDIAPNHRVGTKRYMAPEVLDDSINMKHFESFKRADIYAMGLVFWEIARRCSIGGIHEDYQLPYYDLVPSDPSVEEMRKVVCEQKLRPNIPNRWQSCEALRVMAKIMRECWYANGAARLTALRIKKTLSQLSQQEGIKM
Briefly: LanthaScreen Eu Kinase Binding Assay. The note with it: Kinase Tracer 178, Eu-anti-GST Antibody, read-out: IC50 Enzyme. The gist of the method: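 Compound (1% DMSO final) preincubated 30 min at RT with GST-tagged ALK5, then Eu-anti-GST antibody and Kinase Tracer 178 added for 60 min at RT. TR-FRET read at 340 nm excitation; 665/615 nm emission ratio falls as compound binding rises.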
(In general: Time-resolved FRET reads energy transfer from a long-lived donor to a nearby acceptor.)

In a further assay the test system is TGF-β signaling. Briefly: Assay for evaluating cellular inhibition of TGF-β signaling, HEK293 (SBE reporter) luciferase reporter. Type of assay: cell-based. The note with it: Homo sapiens; HEK293 (SBE reporter) stable cells, 0.5% FBS, 2 h pre-treatment, TGF-β1 2 ng/mL 24 h; read-out: IC50 HEK 293 Cell. On the procedure: [Example 2] Assay for Evaluating Cellular Inhibition of TGF-β Signaling
4T1 (SBE-luc2P) transient pool that have SBE-luc2P (hygro) expression plasmid or HEK293 (SBE reporter) stable cells (BPS bioscience) were seeded at 6×10^3 cells/well or 2.5×10^4 cells/well in 96-well plate, respectively. 4T1 (SBE-luc2P) transient pool were pre-treated with novel compound synthesized in Example 1 above in 0.2% FBS at approximately 60% confluence at 37° C. in 5% CO2. Also, HEK293 (SBE reporter) stable cells were pre-treated with each test compounds of formula in 0.5% FBS at approximately 80% confluence at 37° C. in 5% CO2. After 2 hours, cells were treated with TGF-β1 (2 ng/mL) for 24 h at 37° C. in 5% CO2. Cell lysates were prepared using Luciferase Assay (Promega) according to the manufacturer's instruction, and luminescence was measured by a plate reader, Biotek Synergy H1 (Vermont, USA).
Background: Reporter assays use an easily measured gene product as a stand-in for the process of interest.

Take `CNC(=O)c1cccc(Nc2cc(Oc3sc(C4CC4)nc3-c3cccc(C)n3)ccn2)n1` [A-279, 6-((4-((2-Cyclopropyl-4-(6-methylpyridin-2-yl)thiazol-5-yl)oxy)pyridin-2-yl)amino)-N-methylpicolinamide]: the half-inhibitory concentration (IC50) at ALK5 kinase and with TGF-β signaling was below 100 nM in each case.
As to `CNC(=O)c1ccnc(Nc2cc(Oc3sc(C4CC4)nc3-c3cccc(C)n3)ccn2)c1` [A-280, 2-((4-((2-Cyclopropyl-4-(6-methylpyridin-2-yl)thiazol-5-yl)oxy)pyridin-2-yl)amino)-N-methylisonicotinamide], the IC50 on ALK5 kinase and in the assay on TGF-β signaling was below 100 nM in each case.
As to `O=C(O)c1ccc(Nc2cc(Oc3oc(C4CC4)nc3-c3ccccc3)ccn2)nc1` [A-293, 6-((4-((2-Cyclopropyl-4-phenyloxazol-5-yl)oxy)pyridin-2-yl)amino)nicotinic acid], the IC50 on ALK5 kinase and in the assay with TGF-β signaling was below 100 nM throughout.
Consider `NC(=O)c1ccc(Nc2cc(Oc3oc(C4CC4)nc3-c3ccccc3)ccn2)nc1` [A-294, 6-((4-((2-Cyclopropyl-4-phenyloxazol-5-yl)oxy)pyridin-2-yl)amino)nicotinamide], for which the concentration for half-maximal inhibition (IC50) on ALK5 kinase and in the assay on TGF-β signaling was below 100 nM each time.
`O=C(O)c1ccc(Nc2cc(Oc3oc(C4CC4)nc3-c3ccccc3)ccn2)cc1` [A-295, 4-((4-((2-Cyclopropyl-4-phenyloxazol-5-yl)oxy)pyridin-2-yl)amino)benzoic acid]: the IC50 at ALK5 kinase and in the assay on TGF-β signaling was below 100 nM in each case.
